Test results taken from patent US20060069132A1, “Azolecarboxamide herbicides” (priority 2004, published 2006).

How the values were obtained:
barnyardgrass [1] = assay: Test B pre-/postemergence herbicide test; assay type: in vivo, Echinochloa crus-galli; settings: for Barnyardgrass plant response rating: postemergence, visual rating, scale 0 (no effect) to 100 (complete control)
Summary of the method: (§1)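 Species tested were Echinochloa crus-galli, Ipomoea coccinea, Xanthium strumarium and Oryza sativa, treated both before emergence and at the 1- to 4-leaf stage; rice and barnyardgrass were also tested under flooding at 2 leaves. Greenhouse incubation lasted 13–15 days before visual 0–100 scoring.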

velvetleaf [2] = assay: Test B pre-/postemergence herbicide test; assay type: in vivo, Abutilon theophrasti; settings: for Velvetleaf plant response rating: postemergence, visual rating, scale 0 (no effect) to 100 (complete control)
Summary of the method: (§2)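 Response was scored visually 13 to 15 days after treatment against untreated greenhouse controls, 0 meaning no effect and 100 complete control. Formulations (solvent mixture plus surfactant) went onto soil after planting, onto foliage of 1- to 4-leaf plants, and onto 2-leaf plants in a flooded paddy set including rice and barnyardgrass.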

large crabgrass [3] = assay: Test B pre-/postemergence herbicide test; assay type: in vivo, Digitaria sanguinalis; settings: for Crabgrass, Large plant response rating: postemergence, visual rating, scale 0 (no effect) to 100 (complete control)
Summary of the method: as §2

lambsquarters = assay: Test B pre-/postemergence herbicide test; assay type: in vivo, Chenopodium album; settings: for Lambsquarters plant response rating: postemergence, visual rating, scale 0 (no effect) to 100 (complete control)
Summary of the method: as §2

giant foxtail [4] = assay: Test A pre-/postemergence herbicide test; assay type: in vivo, Setaria faberi
Summary of the method: (§3)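 Plants are held in greenhouse about ten days after treatment, then compared with untreated controls and scored 0 (no effect) to 100 (complete control). Preemergence dosing is a directed soil spray on sown sandy loam; postemergence dosing is spray to runoff at 2–10 cm height.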

redroot pigweed = assay: Test A pre-/postemergence herbicide test; assay type: in vivo, Amaranthus retroflexus
Summary of the method: as §3

ducksalad = assay: Test B flooded paddy test; assay type: in vivo, Heteranthera limosa; settings: 1000 g ai/ha, visual rating, scale 0 to 100 (0 no effect, 100 complete control), 13 to 15 days
Summary of the method: (§4)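 Plants grow to 1- to 4-leaf stage (2–18 cm) for postemergence spraying, or to 2-leaf stage for the paddy test. Formulated compound is applied. Greenhouse holding lasts 13–15 days. Response is scored visually relative to controls, 0 no effect to 100 complete control; a dash means no result.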

rice [5] = assay: Test B flooded paddy test; assay type: in vivo, Oryza sativa; settings: 1000 g ai/ha, visual rating, scale 0 to 100 (0 no effect, 100 complete control), 13 to 15 days
Summary of the method: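 Postemergence plants were sprayed with formulated test chemicals at 2 to 18 cm height (1- to 4-leaf stage); paddy species were grown to the 2-leaf stage. After 13 to 15 days in a greenhouse, injury was rated visually against untreated controls on a 0–100 scale (0 = no effect, 100 = complete control).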

giant foxtail [6] = assay: Test B pre-/postemergence herbicide test; assay type: in vivo, Setaria faberi; settings: for Foxtail, Giant plant response rating: postemergence, visual rating, scale 0 (no effect) to 100 (complete control)
Summary of the method: as §2

cocklebur = assay: Test B pre-/postemergence herbicide test; assay type: in vivo, Xanthium strumarium; settings: for Cocklebur plant response rating: postemergence, visual rating, scale 0 (no effect) to 100 (complete control)
Summary of the method: as §1

blackgrass = assay: Test B postemergence herbicide test; assay type: in vivo, Alopecurus myosuroides; settings: postemergence, visual rating, scale 0 (no effect) to 100 (complete control)
Summary of the method: as §4

wheat = assay: Test B postemergence herbicide test; assay type: in vivo, Triticum aestivum; set-up: key to Wheat plant response rating: 0 = no effect, 100 = complete control; settings: postemergence, visual rating, scale 0 (no effect) to 100 (complete control)
Summary of the method: (§5)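 Treated at 2-leaf (paddy) or 1–4-leaf, 2–18 cm (postemergence); greenhouse 13–15 d; visual score vs control, 0 none to 100 complete control; dash = not tested.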

rice [7] = assay: Test B pre-/postemergence herbicide test; assay type: in vivo, Oryza sativa; settings: preemergence
Summary of the method: as §2

velvetleaf [8] = assay: Test A pre-/postemergence herbicide test; assay type: in vivo, Abutilon theophrasti
Summary of the method: as §3

barnyardgrass [9] = assay: Test B flooded paddy test; assay type: in vivo, Echinochloa crus-galli; settings: 1000 g ai/ha, visual rating, scale 0 to 100 (0 no effect, 100 complete control), 13 to 15 days
Summary of the method: as §4

morningglory [10] = assay: Test B pre-/postemergence herbicide test; assay type: in vivo, Ipomoea coccinea; settings: for Morningglory plant response rating: postemergence, visual rating, scale 0 (no effect) to 100 (complete control)
Summary of the method: as §1

barnyardgrass [11] = assay: Test A pre-/postemergence herbicide test; assay type: in vivo, Echinochloa crus-galli
Summary of the method: as §3

large crabgrass [12] = assay: Test A pre-/postemergence herbicide test; assay type: in vivo, Digitaria sanguinalis
Summary of the method: as §3

corn = assay: Test B pre-/postemergence herbicide test; assay type: in vivo, Zea mays; settings: for Corn plant response rating: postemergence, visual rating, scale 0 (no effect) to 100 (complete control)
Summary of the method: as §2

wild oat = assay: Test B postemergence herbicide test; assay type: in vivo, Avena fatua; settings: postemergence, visual rating, scale 0 (no effect) to 100 (complete control)
Summary of the method: as §5

[13] = system: small flower umbrella sedge; assay: Test B flooded paddy test; assay type: in vivo, Cyperus difformis; settings: 1000 g ai/ha, visual rating, scale 0 to 100 (0 no effect, 100 complete control), 13 to 15 days
Summary of the method: as §4

Surinam grass = assay: Test B pre-/postemergence herbicide test; assay type: in vivo, Urochloa decumbens; settings: for Surinam Grass plant response rating: postemergence, visual rating, scale 0 (no effect) to 100 (complete control)
Summary of the method: as §2

morningglory [14] = assay: Test A pre-/postemergence herbicide test; assay type: in vivo, Ipomoea spp.
Summary of the method: as §3

pigweed = assay: Test B pre-/postemergence herbicide test; assay type: in vivo, Amaranthus retroflexus; settings: for Pigweed plant response rating: postemergence, visual rating, scale 0 (no effect) to 100 (complete control)
Summary of the method: as §2

[15] = 125 g ai/ha, 0 = no effect, 100 = complete control, preemergence
[16] = 500 g ai/ha, visual rating 0-100, 0 no effect, 100 complete control, preemergence
[17] = Postemergence, 500 g ai/ha, 0 to 100 scale, 0 no effect, 100 complete control
[18] = Postemergence, 2000 g ai/ha, 0 to 100 scale, 0 no effect, 100 complete control
[19] = Preemergence, 2000 g ai/ha, visual rating, 0 to 100 scale (0 no effect, 100 complete control)
[20] = preemergence, 500 g ai/ha, visual injury, 0 to 100 scale (0 no effect, 100 complete control)

## CCc1nc(C(C)(C)C)sc1C(=O)Nc1cccc(C(=O)NCC(F)(F)F)c1 [Compound 206]
Barnyardgrass [1]; [15]
  Barnyardgrass plant response rating (0 to 100 scale): 10
Barnyardgrass [1]; [16]
  Plant response rating, Barnyardgrass: 70
Barnyardgrass [1]; 125 g ai/ha
  Barnyardgrass plant response rating: 0
Barnyardgrass [1]; 500 g ai/ha
  Barnyardgrass plant response rating: 10
Velvetleaf [2]; [15]
  Velvetleaf plant response rating (0 to 100 scale): 0
Velvetleaf [2]; [16]
  Plant response rating, Velvetleaf: 10
Velvetleaf [2]; 125 g ai/ha
  Velvetleaf plant response rating: 20
Velvetleaf [2]; 500 g ai/ha
  Velvetleaf plant response rating: 20
Large crabgrass [3]; [15]
  Crabgrass, Large plant response rating (0 to 100 scale): 10
Large crabgrass [3]; [16]
  Plant response rating, Crabgrass, Large: 60
Large crabgrass [3]; 125 g ai/ha
  Crabgrass, Large plant response rating: 10
Large crabgrass [3]; 500 g ai/ha
  Crabgrass, Large plant response rating: 30
lambsquarters; [15]
  Lambsquarters plant response rating (0 to 100 scale): 0
lambsquarters; [16]
  Plant response rating, Lambsquarters: 30
lambsquarters; 125 g ai/ha
  Lambsquarters plant response rating: 30
lambsquarters; 500 g ai/ha
  Lambsquarters plant response rating: 80
Giant foxtail [4]; [17]
  Foxtail, Giant plant response rating: 0
Giant foxtail [4]; [18]
  Plant response rating, Foxtail, Giant: 0
Giant foxtail [4]; [19]
  Foxtail, Giant plant response rating: 20
Giant foxtail [4]; [20]
  Foxtail, Giant plant response rating: 0
Redroot pigweed; [17]
  Pigweed plant response rating: 15
Redroot pigweed; [18]
  Plant response rating, Pigweed: 20
Redroot pigweed; [19]
  Pigweed plant response rating: 60
Redroot pigweed; [20]
  Pigweed plant response rating: 25
ducksalad
  Ducksalad plant response rating: 40
Rice [5]
  Rice plant response rating: 30
Giant foxtail [6]; [15]
  Foxtail, Giant plant response rating (0 to 100 scale): 0
Giant foxtail [6]; [16]
  Plant response rating, Foxtail, Giant: 20
Giant foxtail [6]; 125 g ai/ha
  Foxtail, Giant plant response rating: 20
Giant foxtail [6]; 500 g ai/ha
  Foxtail, Giant plant response rating: 20
cocklebur; [15]
  Cocklebur plant response rating (0 to 100 scale): 0
cocklebur; [16]
  Plant response rating, Cocklebur: 0
cocklebur; 125 g ai/ha
  Cocklebur plant response rating: 20
cocklebur; 500 g ai/ha
  Cocklebur plant response rating: 40
blackgrass; 125 g ai/ha
  Blackgrass plant response rating: 0
blackgrass; 500 g ai/ha
  Blackgrass plant response rating: 20
wheat; 125 g ai/ha
  Wheat plant response rating: 20
wheat; 500 g ai/ha
  Wheat plant response rating: 20
Rice [7]; 125 g ai/ha, 0 = no effect, 100 = complete control
  Rice plant response rating (0 to 100 scale): 0
Rice [7]; 500 g ai/ha, visual rating 0-100, 0 no effect, 100 complete control
  Plant response rating, Rice: 30
Velvetleaf [8]; [17]
  Velvetleaf plant response rating: 5
Velvetleaf [8]; [18]
  Plant response rating, Velvetleaf: 20
Velvetleaf [8]; [19]
  Velvetleaf plant response rating: 10
Velvetleaf [8]; [20]
  Velvetleaf plant response rating: 15
Barnyardgrass [9]
  Barnyardgrass plant response rating: 10
Morningglory [10]; [15]
  Morningglory plant response rating (0 to 100 scale): 0
Morningglory [10]; [16]
  Plant response rating, Morningglory: 20
Morningglory [10]; 125 g ai/ha
  Morningglory plant response rating: 20
Morningglory [10]; 500 g ai/ha
  Morningglory plant response rating: 20
Barnyardgrass [11]; [17]
  Barnyardgrass plant response rating: 5
Barnyardgrass [11]; [18]
  Plant response rating, Barnyardgrass: 10
Barnyardgrass [11]; [19]
  Barnyardgrass plant response rating: 60
Barnyardgrass [11]; [20]
  Barnyardgrass plant response rating: 10
Large crabgrass [12]; [17]
  Crabgrass, Large plant response rating: 0
Large crabgrass [12]; [18]
  Plant response rating, Crabgrass, Large: 5
Large crabgrass [12]; [19]
  Crabgrass, Large plant response rating: 20
Large crabgrass [12]; [20]
  Crabgrass, Large plant response rating: 20
corn; [15]
  Corn plant response rating (0 to 100 scale): 0
corn; [16]
  Plant response rating, Corn: 40
corn; 125 g ai/ha
  Corn plant response rating: 20
corn; 500 g ai/ha
  Corn plant response rating: 20
Wild oat; 125 g ai/ha
  Oat, Wild plant response rating: 20
Wild oat; 500 g ai/ha
  Oat, Wild plant response rating: 20
[13]
  Sedge, Umbrella plant response rating: 50
Surinam grass; [15]
  Surinam Grass plant response rating (0 to 100 scale): 0
Surinam grass; [16]
  Plant response rating, Surinam Grass: 20
Surinam grass; 125 g ai/ha
  Surinam Grass plant response rating: 10
Surinam grass; 500 g ai/ha
  Surinam Grass plant response rating: 20
Morningglory [14]; [17]
  Morningglory plant response rating: 0
Morningglory [14]; [18]
  Plant response rating, Morningglory: 0
Morningglory [14]; [19]
  Morningglory plant response rating: 25
Morningglory [14]; [20]
  Morningglory plant response rating: 5
pigweed; [15]
  Pigweed plant response rating (0 to 100 scale): 0
pigweed; [16]
  Plant response rating, Pigweed: 80
pigweed; 125 g ai/ha
  Pigweed plant response rating: 30
pigweed; 500 g ai/ha
  Pigweed plant response rating: 40
